Test results reported in patent US10870647B2, “Imidazopyridine derivative, method for preparing same, and pharmaceutical composition containing same as active ingredient for preventing or treating cancer” (DAEGU-GYEONGBUK MEDICAL INNOVATION FOUNDATION, priority 2016, dated 2020).
Where two headings read alike, the source gives them in different places.

Tests used:
Test in all cases: Kinase selectivity, scanMAX Kinase assay panel (DiscoverX), % control at 1 uM
Assay type in all cases: binding
[1] = molecular target: T1, scanMAX Kinase assay panel (Homo sapiens, UniProt P00519, F317L); conditions: 1 uM, read-out: Percent Control (%)
T1 construct: purchased DiscoverX
Procedure, shortened: (§1)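 Single-point screen at 1 uM compound in DMSO. Lower % control means stronger inhibition, with the cutoff for activity set at <35%.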

[2] = molecular target: T2, scanMAX Kinase assay panel (Homo sapiens, UniProt O60285); conditions: ARK5; 1 uM; read-out: Percent Control (%)
T2 construct: purchased DiscoverX
T2 sequence (O60285 1-661): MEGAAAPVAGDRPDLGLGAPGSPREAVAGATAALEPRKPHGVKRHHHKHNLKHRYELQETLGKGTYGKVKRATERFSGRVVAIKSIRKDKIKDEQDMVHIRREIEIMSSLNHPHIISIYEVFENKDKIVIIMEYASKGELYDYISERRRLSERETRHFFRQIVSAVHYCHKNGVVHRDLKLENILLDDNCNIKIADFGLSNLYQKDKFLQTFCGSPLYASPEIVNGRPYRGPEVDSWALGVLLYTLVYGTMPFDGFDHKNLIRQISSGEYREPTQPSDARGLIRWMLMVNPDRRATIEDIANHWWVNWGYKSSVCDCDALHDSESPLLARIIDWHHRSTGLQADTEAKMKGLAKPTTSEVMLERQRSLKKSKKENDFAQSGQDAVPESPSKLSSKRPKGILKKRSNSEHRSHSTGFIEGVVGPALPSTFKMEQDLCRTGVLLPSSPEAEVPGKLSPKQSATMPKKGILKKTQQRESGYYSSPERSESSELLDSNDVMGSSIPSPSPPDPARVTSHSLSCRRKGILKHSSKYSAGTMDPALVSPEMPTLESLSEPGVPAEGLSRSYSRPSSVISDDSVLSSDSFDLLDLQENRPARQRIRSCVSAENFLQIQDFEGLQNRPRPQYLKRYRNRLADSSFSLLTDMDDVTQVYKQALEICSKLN
Procedure, shortened: as §1

[3] = molecular target: T3, scanMAX Kinase assay panel (Homo sapiens, UniProt P36888, R834Q); conditions: FLT3 (R834Q); 1 uM; read-out: Percent Control (%)
T3 construct: purchased DiscoverX
T3 sequence (P36888 27-993 R834Q): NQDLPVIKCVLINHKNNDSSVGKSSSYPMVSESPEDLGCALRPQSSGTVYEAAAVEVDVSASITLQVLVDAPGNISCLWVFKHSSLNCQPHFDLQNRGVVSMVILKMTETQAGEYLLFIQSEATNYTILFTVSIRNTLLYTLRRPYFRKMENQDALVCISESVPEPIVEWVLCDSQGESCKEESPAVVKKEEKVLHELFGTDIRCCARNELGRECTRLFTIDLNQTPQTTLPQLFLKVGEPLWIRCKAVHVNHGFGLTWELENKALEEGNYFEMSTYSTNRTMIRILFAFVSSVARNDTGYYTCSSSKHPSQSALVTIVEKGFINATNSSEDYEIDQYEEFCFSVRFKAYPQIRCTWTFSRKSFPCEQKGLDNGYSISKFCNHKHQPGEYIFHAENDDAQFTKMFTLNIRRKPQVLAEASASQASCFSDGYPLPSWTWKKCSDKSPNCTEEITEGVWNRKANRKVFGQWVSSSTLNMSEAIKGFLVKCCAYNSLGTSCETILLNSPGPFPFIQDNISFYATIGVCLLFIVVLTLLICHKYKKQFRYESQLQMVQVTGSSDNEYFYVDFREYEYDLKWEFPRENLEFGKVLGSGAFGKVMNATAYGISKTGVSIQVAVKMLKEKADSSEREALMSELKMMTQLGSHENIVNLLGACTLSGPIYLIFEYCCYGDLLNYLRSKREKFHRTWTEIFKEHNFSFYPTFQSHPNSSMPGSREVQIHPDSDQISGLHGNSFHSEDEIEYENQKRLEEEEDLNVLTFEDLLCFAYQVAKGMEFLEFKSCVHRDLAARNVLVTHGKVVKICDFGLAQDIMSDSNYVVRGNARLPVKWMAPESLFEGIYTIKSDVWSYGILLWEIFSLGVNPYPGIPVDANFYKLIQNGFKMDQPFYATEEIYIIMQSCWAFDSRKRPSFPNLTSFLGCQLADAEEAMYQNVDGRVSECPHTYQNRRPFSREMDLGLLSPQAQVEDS
Procedure, shortened: as §1

[4] = molecular target: T4, scanMAX Kinase assay panel (Homo sapiens, UniProt O14965); conditions: AURKA; 1 uM; read-out: Percent Control (%)
T4 construct: purchased DiscoverX
T4 sequence (O14965 1-403): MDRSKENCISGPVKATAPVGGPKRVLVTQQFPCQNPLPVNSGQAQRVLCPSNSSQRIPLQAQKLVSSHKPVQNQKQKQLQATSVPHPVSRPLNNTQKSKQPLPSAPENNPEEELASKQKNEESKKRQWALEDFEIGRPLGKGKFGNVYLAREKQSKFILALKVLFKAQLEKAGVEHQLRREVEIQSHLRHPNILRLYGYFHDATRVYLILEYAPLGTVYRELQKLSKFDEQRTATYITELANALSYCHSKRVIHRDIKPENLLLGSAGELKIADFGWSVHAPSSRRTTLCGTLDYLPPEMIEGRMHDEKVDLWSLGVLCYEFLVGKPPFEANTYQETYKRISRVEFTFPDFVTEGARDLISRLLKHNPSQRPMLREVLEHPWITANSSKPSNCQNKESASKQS
Procedure, shortened: as §1

[5] = molecular target: T5, scanMAX Kinase assay panel (Homo sapiens, UniProt P09769); conditions: FGR; 1 uM; read-out: Percent Control (%)
T5 construct: purchased DiscoverX
Procedure, shortened: as §1

[6] = molecular target: T6, scanMAX Kinase assay panel (Homo sapiens, UniProt Q9Y2K2); conditions: QSK; 1 uM; read-out: Percent Control (%)
T6 construct: purchased DiscoverX
Procedure, shortened: as §1

T5 sequence (P09769 whole entry): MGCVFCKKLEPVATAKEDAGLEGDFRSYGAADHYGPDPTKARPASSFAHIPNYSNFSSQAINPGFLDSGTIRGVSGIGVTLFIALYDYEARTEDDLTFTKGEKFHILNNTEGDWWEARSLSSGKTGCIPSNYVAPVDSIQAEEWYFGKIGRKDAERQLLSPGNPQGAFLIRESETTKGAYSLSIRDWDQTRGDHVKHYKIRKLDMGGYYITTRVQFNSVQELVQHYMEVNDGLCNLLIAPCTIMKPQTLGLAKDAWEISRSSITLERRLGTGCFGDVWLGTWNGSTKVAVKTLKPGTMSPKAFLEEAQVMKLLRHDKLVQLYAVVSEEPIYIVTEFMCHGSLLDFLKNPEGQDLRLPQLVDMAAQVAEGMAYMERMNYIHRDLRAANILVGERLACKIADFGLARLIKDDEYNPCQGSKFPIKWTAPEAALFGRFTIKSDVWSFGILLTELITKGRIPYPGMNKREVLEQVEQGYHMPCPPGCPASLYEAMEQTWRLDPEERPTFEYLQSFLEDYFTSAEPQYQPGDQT
T1 sequence (P00519 whole entry F317L): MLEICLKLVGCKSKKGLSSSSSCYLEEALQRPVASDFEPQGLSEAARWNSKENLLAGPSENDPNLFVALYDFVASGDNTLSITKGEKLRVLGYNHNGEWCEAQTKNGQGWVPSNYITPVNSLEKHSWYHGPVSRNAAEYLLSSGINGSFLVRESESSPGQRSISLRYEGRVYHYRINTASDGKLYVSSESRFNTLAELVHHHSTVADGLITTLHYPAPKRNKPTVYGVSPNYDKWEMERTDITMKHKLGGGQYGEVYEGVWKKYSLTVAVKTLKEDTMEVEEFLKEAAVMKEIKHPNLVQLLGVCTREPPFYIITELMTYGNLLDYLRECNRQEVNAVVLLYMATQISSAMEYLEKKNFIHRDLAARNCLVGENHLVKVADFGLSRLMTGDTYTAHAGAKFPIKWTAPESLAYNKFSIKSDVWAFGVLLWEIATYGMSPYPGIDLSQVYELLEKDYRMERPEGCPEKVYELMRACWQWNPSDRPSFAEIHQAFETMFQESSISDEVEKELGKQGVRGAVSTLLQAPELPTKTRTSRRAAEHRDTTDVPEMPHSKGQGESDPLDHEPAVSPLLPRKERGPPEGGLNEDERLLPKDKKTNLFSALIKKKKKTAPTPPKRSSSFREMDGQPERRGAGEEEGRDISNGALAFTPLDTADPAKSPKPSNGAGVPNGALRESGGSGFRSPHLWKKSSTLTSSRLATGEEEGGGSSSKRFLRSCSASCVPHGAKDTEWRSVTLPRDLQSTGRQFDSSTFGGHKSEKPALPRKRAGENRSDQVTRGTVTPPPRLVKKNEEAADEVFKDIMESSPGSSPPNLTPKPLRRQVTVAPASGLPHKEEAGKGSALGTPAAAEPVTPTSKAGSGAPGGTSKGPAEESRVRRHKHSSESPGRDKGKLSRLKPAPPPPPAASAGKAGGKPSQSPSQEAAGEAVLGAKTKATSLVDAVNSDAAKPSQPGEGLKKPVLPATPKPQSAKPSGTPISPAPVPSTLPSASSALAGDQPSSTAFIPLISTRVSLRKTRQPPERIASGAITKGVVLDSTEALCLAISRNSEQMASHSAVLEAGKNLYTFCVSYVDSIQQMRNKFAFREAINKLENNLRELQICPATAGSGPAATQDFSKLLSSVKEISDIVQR
T6 sequence (Q9Y2K2 whole entry): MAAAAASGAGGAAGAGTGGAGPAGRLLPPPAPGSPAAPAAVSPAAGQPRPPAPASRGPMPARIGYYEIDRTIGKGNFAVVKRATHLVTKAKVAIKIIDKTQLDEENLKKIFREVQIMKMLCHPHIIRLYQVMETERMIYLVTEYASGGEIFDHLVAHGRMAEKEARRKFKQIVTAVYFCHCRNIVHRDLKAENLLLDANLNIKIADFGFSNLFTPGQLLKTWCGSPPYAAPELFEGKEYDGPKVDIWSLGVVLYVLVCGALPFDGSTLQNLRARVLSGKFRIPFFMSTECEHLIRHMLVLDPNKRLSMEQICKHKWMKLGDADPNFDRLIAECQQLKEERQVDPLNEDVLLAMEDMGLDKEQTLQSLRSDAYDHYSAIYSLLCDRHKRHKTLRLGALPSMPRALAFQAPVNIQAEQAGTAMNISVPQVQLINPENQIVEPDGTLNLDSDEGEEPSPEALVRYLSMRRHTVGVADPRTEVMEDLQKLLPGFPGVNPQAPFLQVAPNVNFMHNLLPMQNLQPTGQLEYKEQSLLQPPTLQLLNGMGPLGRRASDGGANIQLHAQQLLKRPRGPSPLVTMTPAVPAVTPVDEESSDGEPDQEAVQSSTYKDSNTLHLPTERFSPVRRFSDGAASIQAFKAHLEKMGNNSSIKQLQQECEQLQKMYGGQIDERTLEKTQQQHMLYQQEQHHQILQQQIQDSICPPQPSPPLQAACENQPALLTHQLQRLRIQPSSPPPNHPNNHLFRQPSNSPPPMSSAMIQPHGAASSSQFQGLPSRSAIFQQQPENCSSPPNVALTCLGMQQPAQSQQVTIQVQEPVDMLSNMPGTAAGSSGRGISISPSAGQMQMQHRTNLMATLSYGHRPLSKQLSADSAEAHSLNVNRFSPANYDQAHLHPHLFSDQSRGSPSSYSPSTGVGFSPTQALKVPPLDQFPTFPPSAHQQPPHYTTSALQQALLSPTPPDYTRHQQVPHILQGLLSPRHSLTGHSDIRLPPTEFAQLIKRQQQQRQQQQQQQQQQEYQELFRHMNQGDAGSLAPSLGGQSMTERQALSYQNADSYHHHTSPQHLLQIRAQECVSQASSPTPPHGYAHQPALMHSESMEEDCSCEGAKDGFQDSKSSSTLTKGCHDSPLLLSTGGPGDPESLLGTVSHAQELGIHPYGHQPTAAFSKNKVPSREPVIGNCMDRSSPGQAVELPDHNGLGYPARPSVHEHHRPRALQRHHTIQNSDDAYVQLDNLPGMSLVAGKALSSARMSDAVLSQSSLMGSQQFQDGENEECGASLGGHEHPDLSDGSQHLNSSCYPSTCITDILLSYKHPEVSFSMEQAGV

Structure (SMILES)	remaining binding at 1 µM ([1]; ABL1 (F317L)-nonphosphorylated) [%]	remaining binding at 1 µM ([1]; ABL1 (F317L)-phosphorylated) [%]	remaining binding at 1 µM [2] [%]	remaining binding at 1 µM [3] [%]	remaining binding at 1 µM [4] [%]	remaining binding at 1 µM [5] [%]	remaining binding at 1 µM [6] [%]
Cc1ccc(C(=O)Nc2ccc(CN3CCN(C)CC3)c(C(F)(F)F)c2)cc1C#Cc1cnc2c(Nc3cnn(C)c3)cccn12 [Example 1, 4-methyl-3-((8-((1-methyl-1H-pyrazol-4-yl)amino)imidazo[1,2-a]pyridin-3-yl)ethynyl)-N-(4-((4-methylpiperazin-1-yl)methyl)-3-(trifluoromethyl)phenyl)benzamide]	9	2	99	3	72	0	89
Cc1cn(-c2cc(NC(=O)c3ccc(C)c(C#Cc4cnc5c(Nc6cnn(C)c6)cccn45)c3)cc(C(F)(F)F)c2)cn1 [Example 12, 4-methyl-N-(3-(4-methyl-1H-imidazol-1-yl)-5-(trifluoromethyl)phenyl)-3-((8-((1-methyl-1H-pyrazol-4-yl)amino)imidazo[1,2-a]pyridin-3-yl)ethynyl)benzamide]	3	6	100	62	100	4	97
Cc1ccc(NC(=O)C2(C(=O)Nc3ccc(F)cc3)CC2)cc1C#Cc1cnc2c(Nc3cnn(C(C)C)c3)cccn12 [Example 78]	16	85	94	100	100	80	100
